Source: patent US12286437B2, “Cardiac sarcomere inhibitors” (Cytokinetics, Inc., priority 2021, dated 2025)

Assay: Monkey single dose pharmacokinetics
Assay type: in vivo
Details: male, plasma, cynomolgus monkey, IV; for Vd: read-out: Vss; for half-life: read-out: t½ (converted)
Procedure: Non-naïve Male Cynomolgus Monkey (2-5 years of age, body weight 2-5 kg) used in this study were obtained from Topgene Biotechnology. All animals for IV administration had free access to food and water; all animals for PO were fasted overnight prior to dosing and were fed approximately 6 hours after dosing. The IV dose solution was prepared in 10% DMA/[…] solution (40% w/v aqueous HPβCD) at a concentration of 1.0 mg/mL. The oral dose suspension was prepared by suspending the compound in 0.5% HPMC/0.1% Tween 80 in distilled water at a concentration of 0.2 mg/mL. Concentrations of IV and PO doses were measured at the end of the study. PK parameters were calculated using the nominal dose values if the measured values were within 20% of the nominal values. Blood samples were collected by venipuncture of peripheral veins except the dosing vein at pre-dose, 5 15, 30 min, 1, 2, 4, 6, 8, 24 and 48 h post-dose. Blood samples were centrifuged and resultant plasma was frozen for bioanalysis. Plasma samples were stored at −80° C. before analysis. Plasma samples were analyzed for compound concentrations using the LC/MS/MS method. Briefly, a 50 μL aliquot of each plasma sample was mixed with 100 μL of acetonitrile that contained an internal standard. The mixture was vortexed and centrifuged. Ten (10) μL of the resulting solution was injected onto a reverse-phase C18 column and the resultant peaks detected on a LC/MS/MS equipped with a turbo ionspray ionization source. Sample concentrations below the limit of quantification (BLQ) were treated as zero for PK calculations. PK parameters were estimated from individual animals using noncompartmental analysis of the concentration-time data (Phoenix WinNonLin software, version 64; Pharsight, Mountain View, CA). The elimination rate constant (k) was calculated as the absolute value of the slope of the linear regression of logarithm (log) of the concentration versus time for the last three data points of the concentration-time profiles. Apparent elimination half-life (t1/2) values were calculated as ln(2)/k. Area under the concentration-time curve (AUC) values were estimated using linear trapezoidal method. AUCt values were calculated from the dosing time to the last measurable concentration. AUC∞ values were calculated as the sum of the corresponding AUCt and the ratio of the last detectable concentration divided by k. Plasma clearance (CL) was calculated from Dose/AUC∞. Mean resident time extrapolated to infinity (MRT∞) was estimated by moment analysis. Vss was calculated from MRT∞×CL. Maximum concentration (Cmax) and time to reach Cmax (tmax) were recorded as observed. As this was a cross-over study, bioavailability was calculated dAUC∞,po/dAUC∞,iv×100% where dAUC was the dose normalized AUC value from the same animal given IV and PO dose. Data for compounds tested are provided in Table E. Compounds tested were prepared in accordance with the synthetic procedures described herein.

Compound: C[C@H]1CC[C@H](N2CC(=O)N(Cc3ccc(Cl)cc3)C3(CN(C(N)=O)C3)C2=O)CC1 [Compound 18, 5-(4-chlorobenzyl)-8-((1r,4r)-4-methylcyclohexyl)-6,9-dioxo-2,5,8-triazaspiro[3.5]nonane-2-carboxamide]
- clearance: 7.91 mL/min/kg
- Vd: 6.08 L/kg
- half-life: 10.9 h

Compound: CC(C)N1CC(=O)N(Cc2ccc(C(F)(F)F)cc2)C2(CN(c3cccnn3)C2)C1=O [Compound 13, 8-isopropyl-2-(pyridazin-3-yl)-5-(4-(trifluoromethyl)benzyl)-2,5,8-triazaspiro[3.5]nonane-6,9-dione]
- clearance: 25.8 mL/min/kg
- Vd: 3.98 L/kg
- half-life: 2.05 h
